From US8426174B2, “Method for the production of 2-butanol” (Butamax(TM) Advanced Biofuels LLC, priority 2007, dated 2013)
Like-named read-outs stand apart in the source and are kept apart here.

Columns and labels:
E. coli (strain MG1655) = conditions: for % Survival at 30° C. / % Survival at 37° C. / % Survival at 0° C.: 1 h; for concentration at which E. coli cells were killed: one hour
Procedure: (§1) Using overnight cultures or cells from plates, 30 mL cultures of the microorganisms to be tested were started in the following culture media: • E. coli—Miller's LB medium (Teknova, Half Moon Bay, Calif.): • L. plantarum PN0512—Lactobacilli MRS Broth (BD Diagnostic Systems, Sparks, Md.). The E. coli and L. plantarum cultures were grown at 37° C. aerobically with shaking until the cultures were in log phase and the OD600 was between 0.6 and 0.8. A 50 μL aliquot of each culture was removed for a time zero sample. The remainder of the cultures was divided into six 5 mL portions and placed in six small incubation flasks or tubes. […] The flasks or tubes were incubated at a desired temperature, aerobically without shaking for 1 h. After the incubation with one of the butanols, 2 μL from each of the flasks (and in addition 2 μL of the time zero sample of the culture before exposure to one of the butanols) were pipetted into the “head” wells of a 96 well (8×12) microtiter plate, each containing 198 μL of LB medium to give a 10^−2 dilution of the culture. Subsequently, 10^−3, 10^−4, 10^−5, and 10^−6 serial dilutions of the cultures were prepared as follows. The 10^−3 dilution was prepared by pipetting 20 μL of the sample from the head well into the 180 μL LB medium in the next well using a multi-channel pipette. This procedure was repeated 3 more times on successive wells to prepare the 10^−4, 10^−5, and 10^−6 dilutions. After each liquid transfer, the solution in the well was mixed by pipetting it up and down 10 times with the multi-channel pipetor. A 5 μL aliquot of each dilution was spotted onto an LB plate using a multi-channel pipette starting with the 10^−6 dilution, then the 10^−5, and so on working from more to less dilute without a change of tips. The spots were allowed to soak into the agar by leaving the lid of the plate slightly open for 15 to 30 min in a sterile transfer hood. The plates were covered, inverted, and incubated overnight at 37° C. The following day, the number of colonies in the spots were counted from the different dilutions. The number of living cells/mL in each of the original culture solutions from which the 2 μL was withdrawn was calculated and compared to the number of cells in the control untreated culture to determine the % of the cells surviving.

L. plantarum PN0512 = conditions: for % Survival at 37° C. / % Survival at 23° C. / % Survival at 0° C. / concentration at which L. plantarum PN0512 cells were killed: one hour
Procedure: as §1

E. coli strain MG1655 = test system: E. coli strain MG1655
Procedure: For the stationary phase studies, E. coli strain MG1655 (ATCC #700926) was grown overnight in LB medium (Teknova, Half Moon Bay, Calif.) with shaking at 250 rpm at 42° C., 29° C. or 28° C. […] To these were added 10 μL of the overnight cultures and the tubes were immediately placed in shaking incubators at 42° C. or 28° C. or left on ice for 30 min. […] Then, 5 μL of the undiluted treated cultures were spotted on LB agar plates. Subsequent 10-fold serial dilutions of 10^−3, 10^−4, 10^−5 and 10^−6 of the exposed cultures were done by serial pipetting of 20 μL, starting with the 10^−2 dilution cultures, into 180 μL of LB medium in the microplate, using a multi-channel pipette. Prior to each transfer, the cultures were mixed by pipetting up and down six times. Each dilution (5 μL) was spotted onto an LB plate using a multi-channel pipette and allowed to soak into the plate. The plates were inverted and incubated overnight at 37° C. […] Survival of 0% was recorded when no colonies in the spots of the undiluted or any of the serial dilutions were observed.

[1] = 1.0 % (w/v) 1-butanol, grown at 29° C.
[2] = 1.0 % (w/v) 1-butanol, grown at 42° C.
[3] = 1.5 % (w/v) 1-butanol, grown at 29° C.
[4] = 1.5 % (w/v) 1-butanol, grown at 42° C.
[5] = 2.0 % (w/v) 1-butanol, grown at 29° C.
[6] = 2.0 % (w/v) 1-butanol, grown at 42° C.
[7] = 3.0 % (w/v) 1-butanol, grown at 29° C.
[8] = 3.0 % (w/v) 1-butanol, grown at 42° C.
[9] = 4.0 % (w/v) 1-butanol, grown at 29° C.
[10] = 4.0 % (w/v) 1-butanol, grown at 42° C.
[11] = […] (w/v) 1-butanol, grown at 29° C.
[12] = […] (w/v) 1-butanol, grown at 42° C.

1-butanol
20%: % Survival at 37° C. (E. coli (strain MG1655); 1.5 % v/v 1-butanol)
3.5 % v/v: concentration at which L. plantarum PN0512 cells were killed (L. plantarum PN0512; 23° C.)
29%: % Survival at 37° C. (L. plantarum PN0512; 2 % v/v 1-butanol)
72%: % Survival at 37° C. (E. coli (strain MG1655); 1 % v/v 1-butanol)
≤ 4.5 % v/v: concentration with no toxic effect on E. coli cells (E. coli (strain MG1655); 0° C., one hour treatment) | concentration with no toxic effect on L. plantarum PN0512 cells (L. plantarum PN0512; 0° C., one hour treatment)
0.001%: % survival after 30 min exposure at 0° C. (E. coli strain MG1655; 6.0 % (w/v) 1-butanol, grown at 29° C.)
0.0004%: % survival after 30 min exposure at 28° C. (E. coli strain MG1655; [10])
58%: % Survival at 37° C. (L. plantarum PN0512; 1.5 % v/v 1-butanol)
0.0003%: % survival after 30 min exposure at 28° C. (E. coli strain MG1655; 4.0 % (w/v) 1-butanol, grown at 28° C.)
0.1%: % survival after 30 min exposure at 42° C. (E. coli strain MG1655; [3]) | % survival after 30 min exposure at 42° C. (E. coli strain MG1655; [4]) | % survival after 30 min exposure at 42° C. (E. coli strain MG1655; [5])
80%: % Survival at 37° C. (L. plantarum PN0512; 1 % v/v 1-butanol)
0%: % Survival at 37° C. (E. coli (strain MG1655); 2 % v/v 1-butanol) | % Survival at 30° C. (E. coli (strain MG1655); 3 % v/v 1-butanol) | % Survival at 37° C. (E. coli (strain MG1655); 3 % v/v 1-butanol) | % Survival at 37° C. (E. coli (strain MG1655); […] v/v 1-butanol) | % Survival at 37° C. (L. plantarum PN0512; 3 % v/v 1-butanol) | % Survival at 23° C. (L. plantarum PN0512; 4 % v/v 1-butanol) | % Survival at 0° C. (L. plantarum PN0512; 5 % v/v 1-butanol) | % Survival at 0° C. (L. plantarum PN0512; 5.5 % v/v 1-butanol) | % survival after 30 min exposure at 42° C. (E. coli strain MG1655; [6]) | % survival after 30 min exposure at 42° C. (E. coli strain MG1655; [7]) | % survival after 30 min exposure at 42° C. (E. coli strain MG1655; [8]) | % survival after 30 min exposure at 42° C. (E. coli strain MG1655; [9]) | % survival after 30 min exposure at 42° C. (E. coli strain MG1655; [10]) | % survival after 30 min exposure at 0° C. (E. coli strain MG1655; 6.0 % (w/v) 1-butanol, grown at 42° C.) | % survival after 30 min exposure at 0° C. (E. coli strain MG1655; 7.0 % (w/v) 1-butanol, grown at 29° C.) | % survival after 30 min exposure at 0° C. (E. coli strain MG1655; 7.0 % (w/v) 1-butanol, grown at 42° C.) | % survival after 30 min exposure at 42° C. (E. coli strain MG1655; [11]) | % survival after 30 min exposure at 42° C. (E. coli strain MG1655; [12])
100%: % Survival at 30° C. (E. coli (strain MG1655); 1 % v/v 1-butanol) | % Survival at 30° C. (E. coli (strain MG1655); 1.5 % v/v 1-butanol) | % Survival at 30° C. (E. coli (strain MG1655); 2 % v/v 1-butanol) | % Survival at 0° C. (E. coli (strain MG1655); 3 % v/v 1-butanol) | % Survival at 0° C. (E. coli (strain MG1655); 4 % v/v 1-butanol) | % Survival at 0° C. (E. coli (strain MG1655); […] v/v 1-butanol) | % Survival at 23° C. (L. plantarum PN0512; 2 % v/v 1-butanol) | % Survival at 0° C. (L. plantarum PN0512; 3 % v/v 1-butanol) | % Survival at 0° C. (L. plantarum PN0512; 4 % v/v 1-butanol) | % Survival at 0° C. (L. plantarum PN0512; […] v/v 1-butanol) | % survival after 30 min exposure at 28° C. (E. coli strain MG1655; 1.0 % (w/v) 1-butanol, grown at 28° C.) | % survival after 30 min exposure at 0° C. (E. coli strain MG1655; [1]) | % survival after 30 min exposure at 42° C. (E. coli strain MG1655; [1]) | % survival after 30 min exposure at 0° C. (E. coli strain MG1655; [2]) | % survival after 30 min exposure at 28° C. (E. coli strain MG1655; [2]) | % survival after 30 min exposure at 42° C. (E. coli strain MG1655; [2]) | % survival after 30 min exposure at 28° C. (E. coli strain MG1655; 1.5 % (w/v) 1-butanol, grown at 28° C.) | % survival after 30 min exposure at 0° C. (E. coli strain MG1655; [3]) | % survival after 30 min exposure at 0° C. (E. coli strain MG1655; [4]) | % survival after 30 min exposure at 28° C. (E. coli strain MG1655; [4]) | % survival after 30 min exposure at 28° C. (E. coli strain MG1655; 2.0 % (w/v) 1-butanol, grown at 28° C.) | % survival after 30 min exposure at 0° C. (E. coli strain MG1655; [5]) | % survival after 30 min exposure at 0° C. (E. coli strain MG1655; [6]) | % survival after 30 min exposure at 28° C. (E. coli strain MG1655; [6]) | % survival after 30 min exposure at 28° C. (E. coli strain MG1655; 3.0 % (w/v) 1-butanol, grown at 28° C.) | % survival after 30 min exposure at 0° C. (E. coli strain MG1655; [7]) | % survival after 30 min exposure at 0° C. (E. coli strain MG1655; [8]) | % survival after 30 min exposure at 28° C. (E. coli strain MG1655; [8]) | % survival after 30 min exposure at 0° C. (E. coli strain MG1655; [9]) | % survival after 30 min exposure at 0° C. (E. coli strain MG1655; [10]) | % survival after 30 min exposure at 0° C. (E. coli strain MG1655; [11]) | % survival after 30 min exposure at 0° C. (E. coli strain MG1655; [12])
2 % v/v: concentration at which E. coli cells were killed (E. coli (strain MG1655); 37° C.)
2.5 % v/v: concentration at which L. plantarum PN0512 cells were killed (L. plantarum PN0512; 37° C.)
3 % v/v: concentration at which E. coli cells were killed (E. coli (strain MG1655); 30° C.)
82%: % Survival at 23° C. (L. plantarum PN0512; 3 % v/v 1-butanol)
1%: % survival after 30 min exposure at 0° C. (E. coli strain MG1655; 5.0 % (w/v) 1-butanol, grown at 29° C.) | % survival after 30 min exposure at 0° C. (E. coli strain MG1655; 5.0 % (w/v) 1-butanol, grown at 42° C.)
